# Assay results taken from the supplement of paper PMC8988213.
# Experiments:
# [1] = tested on: ID211 patient-derived PDAC 2D line (post-FOLFIRINOX); assay: normalised area under dose-response curve (viability relative to DMSO, 7 doses up to 10 µM) (fraction (AUC)); higher = less sensitive (more viability retained); conditions: 72 h; top dose: 10 µM
# Summary of the method: (§1)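 Patient-derived 2D PDAC cells grown out from organoids were seeded robotically at 1,500–3,000 cells/well in 96-well plates and incubated overnight at 37°C, 5% CO2. SelleckChem library compounds were added at seven concentrations (3-fold dilution series, highest 10 µM) for 72 h. CellTiter-Glo luminescence was read after 10 min. Viability was normalised to the DMSO control, and area under the dose-response curve was derived with the GRmetrics R package.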
# [2] = tested on: ID188 patient-derived PDAC 2D line (pre-FOLFIRINOX); assay: as above; conditions: 72 h; top dose: 10 µM
# Summary of the method: as §1
compound,measurement,setting,value
"Cc1[nH]c(/C=C2\C(=O)Nc3ccccc32)c(C)c1CCC(=O)O [Orantinib (TSU-68, SU6668)]",normalised area under dose-response curve,[1],0.843
same,normalised area under dose-response curve,[2],0.845
C=CC(=O)Nc1cc(Nc2nccc(-c3cn(C)c4ccccc34)n2)c(OC)cc1N(C)CCN(C)C [Osimertinib (AZD9291)],normalised area under dose-response curve,[1],0.749
same,normalised area under dose-response curve,[2],0.855
O=C(O)C(=O)O.[NH-][C@@H]1CCCC[C@H]1[NH-].[Pt+2] [Oxaliplatin],normalised area under dose-response curve,[1],0.844
same,normalised area under dose-response curve,[2],0.901
Cc1cc(CS(=O)(=O)c2ccccc2)cc(OCc2ccc(CN3CCC[C@@H]3CO)cc2)c1 [PF-543],normalised area under dose-response curve,[1],0.903
same,normalised area under dose-response curve,[2],0.924
O=C(Nc1cccnc1)N1CCC(Cc2cccc(Oc3ccc(C(F)(F)F)cn3)c2)CC1 [PF-3845],normalised area under dose-response curve,[1],0.912
same,normalised area under dose-response curve,[2],0.905
COc1ccccc1C(=O)Nc1cc2c(cc1N1CCCC1)n(C)c(=O)n2C [PFI-4],normalised area under dose-response curve,[1],0.787
same,normalised area under dose-response curve,[2],0.955
O=C(/C=C/c1ccc2ccccc2n1)c1ccncc1 [PFK15],normalised area under dose-response curve,[1],0.778
same,normalised area under dose-response curve,[2],0.911
CCCCCCCCCCCCc1ccc(S(=O)(=O)Nc2nncs2)cc1 [PHT-427],normalised area under dose-response curve,[1],0.931
same,normalised area under dose-response curve,[2],0.871
CC(=O)Nc1nc(C)c(-c2ccc(Cl)c(S(=O)(=O)NCCO)c2)s1 [PIK-93],normalised area under dose-response curve,[1],0.807
same,normalised area under dose-response curve,[2],0.927
CCCS(=O)(=O)Nc1ccc(F)c(C(=O)c2c[nH]c3ncc(Cl)cc23)c1F [PLX-4720],normalised area under dose-response curve,[1],0.842
same,normalised area under dose-response curve,[2],0.886
N#CSc1cc(SC#N)c(N)nc1N [PR-619],normalised area under dose-response curve,[1],0.875
same,normalised area under dose-response curve,[2],0.921
O=C1C2CCN(CC2)C1(CO)CO [PRIMA-1],normalised area under dose-response curve,[1],0.867
same,normalised area under dose-response curve,[2],0.947
O=C1C(=Cc2cccnc2)C(=O)c2ccccc21 [PRT4165],normalised area under dose-response curve,[1],0.746
same,normalised area under dose-response curve,[2],0.875
O=C(Nc1cc(Cl)cc2c1[nH]c1cnccc12)c1cccnc1 [PS-1145],normalised area under dose-response curve,[1],0.839
same,normalised area under dose-response curve,[2],0.923
COc1cc(Br)c(Nc2nc(-c3c(C)nc4ncccn34)cs2)c(Br)c1 [PTC-209 HBr],normalised area under dose-response curve,[1],0.819
same,normalised area under dose-response curve,[2],0.836
CCC(C)SSc1ncc[nH]1 (stereo unspecified) [PX-12],normalised area under dose-response curve,[1],0.903
same,normalised area under dose-response curve,[2],0.985
CCOC(=O)c1ccc(N2NC(=O)C(=Cc3ccc([N+](=O)[O-])o3)C2=O)cc1 [PYR-41],normalised area under dose-response curve,[1],0.807
same,normalised area under dose-response curve,[2],0.91
CC(=O)O[C@H]1C(=O)[C@@]2(C)[C@H]([C@H](OC(=O)c3ccccc3)[C@]3(O)C[C@H](OC(=O)[C@H](O)[C@@H](NC(=O)c4ccccc4)c4ccccc4)C(C)=C1C3(C)C)[C@]1(OC(C)=O)CO[C@@H]1C[C@@H]2O [Paclitaxel],normalised area under dose-response curve,[1],0.444
same,normalised area under dose-response curve,[2],0.432
Cc1[nH]c2ccccc2c1CCNCc1ccc(/C=C/C(=O)NO)cc1 [Panobinostat (LBH589)],normalised area under dose-response curve,[1],0.306
same,normalised area under dose-response curve,[2],0.421
CCOc1cc2ncc(C#N)c(Nc3ccc(F)c(Cl)c3)c2cc1NC(=O)/C=C/CN(C)C [Pelitinib (EKB-569)],normalised area under dose-response curve,[1],0.631
same,normalised area under dose-response curve,[2],0.846
NS(=O)(=O)OC[C@@H]1C[C@@H](n2ccc3c(N[C@H]4CCc5ccccc54)ncnc32)C[C@@H]1O [Pevonedistat (MLN4924)],normalised area under dose-response curve,[1],0.589
same,normalised area under dose-response curve,[2],0.825
CS(=O)(=O)N1CCN(Cc2cc3nc(-c4cccc5[nH]ncc45)nc(N4CCOCC4)c3s2)CC1 [Pictilisib (GDC-0941)],normalised area under dose-response curve,[1],0.596
same,normalised area under dose-response curve,[2],0.683
CC(C)N(C[C@H]1O[C@@H](n2cnc3c(N)ncnc32)[C@H](O)[C@@H]1O)[C@H]1C[C@@H](CCc2nc3cc(C(C)(C)C)ccc3[nH]2)C1 [Pinometostat (EPZ5676)],normalised area under dose-response curve,[1],0.8
same,normalised area under dose-response curve,[2],0.916
